pIC50: −log10 of the molar value. Where two headings read alike, the source gives them in different places.
How the values were obtained:
[1] = Cyclic voltammetry (oxidation potential); format: physicochemical
Description: Nitroxides undergo one electron reduction and oxidation, which provides their antioxidant characteristics. Cyclic Voltammetry (CV) measurements of the nitroxide-NSAIDs were taken with an EG Potensiostat/Galvanostat Model 273A, from AMETEK Princeton Applied Research (Oak Ridge, Tenn.). Measurements were performed at room temperature in PBS or 50% organic solvents, using the platinum auxiliary electrode and Ag/AgCl (saturated KCl) reference electrode.

[2] = tested on: PGE2 production; test: PGE2 ELISA in A549 cells stimulated with arachidonic acid; format: cell-based; settings: Table 1B; for activity at 10 µg/mL / activity at 100 µg/mL: Homo sapiens, A549, read-out: PGE-2 % of control; for activity at 10 µg/mL / activity at 100 µg/mL / PGE-2 % of control: control 42 ± 3 pg ml^−1; for PGE-2: control 42 ± 3, mean ± S.D., n=3
Description: PGE2 was measured by enzyme enzyme-linked immunosorbent assay (ELISA) (Cayman Chemical, Ann Arbor, Mich.). […] A549 cells in 24 well plates were treated with the compound for 30 min., then arachidonic acid (20 μg ml^−1) was added at 37° C. for 5 min. The samples were frozen at −80° C. until assayed for PGE2. A 100 μl sample was added to EIA buffer (900 μl). Diluted sample (25 μl) was then added to a 96 well plate. The samples were incubated overnight at 4° C. The plate was then washed 5 times (200 μA) and Edman's reagent was added. The absorbance at 450 nm was determined in an ELISA reader. […] Percents were obtained using the formula: %: sample pg/ml/control pg/ml×100.

[3] = tested on: LTB4 formation; test: Leukotriene B4 ELISA in A549 cells; format: cell-based; settings: for activity at 10 µg/mL / activity at 100 µg/mL: Homo sapiens, A549; for activity at 10 µg/mL / activity at 100 µg/mL / LTB4 / LTB4 % of control: Table 2B; for activity at 10 µg/mL / activity at 100 µg/mL / LTB4 % of control: control 100 ± 1 pg ml^−1; for LTB4: control 100 ± 1, mean ± S.D., n=3; for inhibition of LTB4 formation: at 10 μg ml^−1 or 100 μg ml^−1
Description: The A549 cell line was grown in Dulbecco's Modified Eagle Medium (DMEM) also supplemented with 10% heat inactivated fetal bovine serum and penicillin-streptomycin. […] The media was changed twice a week.
PGE2 was measured by enzyme enzyme-linked immunosorbent assay (ELISA) (Cayman Chemical, Ann Arbor, Mich.). (1) or (2) was dissolved in DMSO at a concentration of 10 mg ml^−1 for the in vitro experiments. A549 cells in 24 well plates were treated with the compound for 30 min., then arachidonic acid (20 μg ml^−1) was added at 37° C. for 5 min. The samples were frozen at −80° C. until assayed for PGE2. A 100 μl sample was added to EIA buffer (900 μl). Diluted sample (25 μl) was then added to a 96 well plate. The samples were incubated overnight at 4° C. The plate was then washed 5 times ([…]) and […] was added. The absorbance at 450 nm was determined in an ELISA reader. Tables 1A-1B show the mean value±S.D. of 3 determinations. Percents were obtained using the formula: %: sample pg/ml/control pg/ml×100.
Several recent modified NSAIDs target both prostaglandin as well as leukotriene (Martel-Pelletier et al., Ann. Rheum. Dis., 62:501-09 (2003)). Since nitroxides inhibit lipoxygenase (Rachmilewitz et al., Gut, 35: 1181-88 (1994)), the inhibition of LTB4 in A549 cells by these compounds was evaluated. Leukotriene B4 from A549 cells treated as described above was examined using an ELISA assay kit (Cayman Chemical, Ann Arbor, Mich.; Cat No. 520111) according to the manufacturer's instructions. Tables 2A-2B show the mean value±S.D. of 3 determinations. Percents were obtained using the formula: %: sample pg/ml/control pg/ml×100.

[4] = Maximum tolerated dose, IP injection; format: in vivo; settings: nude mice, monitored up to 24 h, death as end point; for MTD at 24 h: female, athymic nude, mouse, in vivo
Description: All animal experiments were carried out in compliance with the Guide for the Care and Use of Laboratory Animal Resources (National Research Council, 1996) and were approved by the National Cancer Institute Animal Care and Use Committee. Female athymic nude mice were supplied at 6 weeks of age by the Frederick Cancer Research Center and were housed five per cage in a climate-controlled environment. […] Each animal was weighed individually on the same day as the intraperitoneal (IP) injection. Different dosages were used to determine the maximum tolerated dose to be given to the animals. Each animal was monitored for up to 24 h and death was the end point of the experiment.

[5] = Krishna et al. 1992, cited from earlier work; for oxidation potential Eox: vs. NHE
[6] = previous reports at pH 7.4; cited from earlier work
[7] = Superoxide scavenging: ferricytochrome c reduction, hypoxanthine/xanthine oxidase; format: biochemical; settings: PBS pH 7.4, 25° C., cyt c 60 μM; read-out: IC50, reduction rate of ferricytochrome c (superoxide scavenging)
Description: Superoxide was generated from the reaction of hypoxanthine (500 μM) with xanthine oxidase (10 mU) in PBS (pH 7.4, 25° C.) containing the metal chelator diethylenetriaminepentaacetic acid (DTPA, 50 μM). The rate of superoxide formation was assessed by ferricytochrome c (cyt c) (60 μM) reduction (550 nm, ε=21,000 M^−1 cm^−1), as previously described (Wasserman et al., Biochim. Biophys. Acta, 623: 457-60 (1980)). Different drug doses (5-100 μM) were used to scavenge superoxide by the modified nitroxide-NSAIDs.

[8] = Carrageenan-induced foot paw edema model; format: in vivo; settings: dose decreasing the inflammatory response by 50%, n = 4
Description: The in vivo anti-inflammatory activity was evaluated using the carrageenan-induced foot paw edema model reported previously (Winter et al. Proc. Soc. Exp. Biol. Med., 111: 544-47 (1962)).

[9] = Hahn et al. 1992; cited from earlier work

Compound	reversibility of cyclic voltammograph [1]	activity at 10 µg/mL ([2]; dose 10 μg ml^−1) [%]	activity at 100 µg/mL ([2]; dose 100 μg ml^−1) [%]	PGE-2 ([2]; dose 10 μg ml^−1)	PGE-2 ([2]; dose 100 μg ml^−1)	activity at 10 µg/mL ([3]; dose 10 μg ml^−1) [%]	activity at 100 µg/mL ([3]; dose 100 μg ml^−1) [%]	LTB4 ([3]; dose 10 μg ml^−1)	LTB4 ([3]; dose 100 μg ml^−1)	inhibition of LTB4 formation [3]	MTD at 24 h [4] [mg/kg]	oxidation potential Eox [5] [V]	rate constant with superoxide [6] [M⁻¹ s⁻¹]	other results
CC(=O)Oc1ccccc1C(=O)OC1CC(C)(C)N([O])C(C)(C)C1 [compound (1), TEMPO-aspirin]	reversible	–	–	–	–	–	–	–	–	–	–	–	–	oxidation potential Eox ([1]; in PBS, versus Ag/AgCl): 0.72 V; oxidation potential Eox ([1]; in PBS, vs NHE): 0.83 V
CC(=O)Oc1ccccc1C(=O)O [ASA, acetyl salicylic acid]	–	107	23	(45 ± 7) pg ml^−1	(10 ± 2) pg ml^−1	64	62	(64 ± 13) pg ml^−1	(62 ± 5) pg ml^−1	no inhibition was observed	100	–	–	–
CC1(C)CCCC(C)(C)N1[O] [TEMPO, 2,2,6,6-Tetramethyl-1-piperidinyloxy]	–	–	–	(56 ± 10) pg ml^−1	(52 ± 8) pg ml^−1	–	–	(100 ± 2) pg ml^−1	(100 ± 1) pg ml^−1	no inhibition was observed	–	0.622	120000	PGE-2 % of control ([2]; dose 10 μg ml^−1): 133%; PGE-2 % of control ([2]; dose 100 μg ml^−1): 123%; LTB4 % of control ([3]; dose 10 μg ml^−1): 100%; LTB4 % of control ([3]; dose 100 μg ml^−1): 100%; Maximum Tolerated Dose (MTD) [4]: 140 mg/kg; E1/2 [5]: 197 mV; pIC50 [7]: ~4.30; oxidation potential Eox ([1]; in acetonitrile, same conditions, vs. NHE): 1.0 V
COc1ccc2c(c1)c(CC(=O)OC1CC(C)(C)N([O])C(C)(C)C1)c(C)n2C(=O)c1ccc(Cl)cc1 [compound (2), TEMPO-indomethacin]	reversible	–	–	–	–	–	–	–	–	–	–	–	–	oxidation potential Eox ([1]; in acetonitrile (100 mM tetrabutylammonium chloride), versus Ag/AgCl): 1.312 V
COc1ccc2c(c1)c(CC(=O)O)c(C)n2C(=O)c1ccc(Cl)cc1 [IND, indomethacin]	–	50	12	(21 ± 3) pg ml^−1	(5 ± 1) pg ml^−1	100	82	(100 ± 10) pg ml^−1	(82 ± 9) pg ml^−1	no inhibition was observed	5	–	–	Anti-inflammatory ED50 [8]: 4.2 mg/kg
CC1(C)CC(O)CC(C)(C)N1[O] [TEMPOL]	–	–	–	–	–	–	–	–	–	–	–	0.810	65000	tolerance (maximum tolerated dose) [9]: 275 mg/kg
